In paper PMC7156724, “Potent BRD4 inhibitor suppresses cancer cell-macrophage interaction” (Nature Communications, 2020):
Values joined by “and” are separate entries in the source; they are usually repeats but may differ in a detail not shown here. Equal values may be shown once.

Key:
[1] = Metabolic stability assay, dog liver microsomes; settings: in % (unit assumed)
Protocol: (§1) 7. Metabolic stability assay. The metabolic profile of NHWD-870 was determined using mouse, rat, dog, monkey, and human liver microsomes using the protocols […]
(§2) No. Compound ID Exat Mass Stock Conc.
(§3) 1) 100 mM potassium phosphate buffer, PH7.4; 2) 10mM MgCI2
(§4) 1) Intermediate solution: Dilute 5 μL of compound or control from stock solution (10 mM) with 45 uL DMSO,then mixed with 450 μL 1:1 Methanol/Water (Conc.: 10 0 […]
(§5) 2) Working solution: Dilute 50 μL from intermediate solution with 450 μL 100 mM potassium phosphate buffer (Conc.: 10 μM, 4.5%MeOH)
(§6) (3) NADPH regenerating system (final Isocitric dehydrogenase conc.= 1 unit/mL at […]
(§7) 1) β-Nicotinamide adenine dinucleotide phosphate, Vendor: sigma Cat. No. N0505
(§8) 2) Isocitric acid, Vendor: Sigma Cat. No. I1252
(§9) 3) Isocitric dehydrogenase, Vendor: sigma Cat. No. I2002
(§10) (4) Liver microsome solution preparation (final concentration o f 0.5 mg protein/mL) […]
(§11) Cold ACN including 100 ng/mL Tolbutamide and 100 ng/mL Labetalol as internal […]
(§12) 1) Add 10 μL compound or control working solution/well to all plates (T0, T5, T10, T20, T30, T60, NCF60) except matrix blank.
(§13) 2) Dispense 680 μL/well microsome solution to 96-well plate as reserv oir according to […]
(§14) plate map. Then add 80 μL/well to every plate by Apricot, incubate the mixture of microsome solution and compound at 37℃ for about 10 min.
(§15) 3) Add 10 μL 100 mM potassium phosphate buffer/well to NCF60, incubate at 37℃, […]
(§16) 4) After pre-warming, dispense 90 μL/well NADPH regenerating system to 96-well plate as reservoir according to the plate map. Then add 10 μL/well to every plate by Apricot to start reaction.
(§17) 5) Incubate at 37℃, start timer 2.
(§18) 6) Add 300 (μL/well) stop solution (cold in 4℃, including 100 ng/mL Tolbutamide and 100 ng/mL Labetalol) to terminate the reaction.
(§19) 7) The sampling plates are shaked for approx 10 min.
(§20) 8) Samples are centrifuged at 4000 rpm for 20 min under 4℃.
(§21) 9) While centrifuging, load 8×new 96-well plate with 300 μL HPLC water, then transfer 100 μL supernatant, mixed for LC/MS/MS.
(§22) Use equation of first order kinetics to calculate t1/2 and Clin t(mic): […]
(§23) Equation of first order kinetics: […]

[2] = Metabolic stability assay, human liver microsomes; settings: in % (unit assumed)
Protocol: as §1, §2, §3, §4, §5, §6, §7, §8, §9, §10, §11, §12, §13, §14, §15, §16, §17, §18, §19, §20, §21, §22, §23

[3] = Metabolic stability assay, monkey liver microsomes; settings: in % (unit assumed)
Protocol: as §1, §2, §3, §4, §5, §6, §7, §8, §9, §10, §11, §12, §13, §14, §15, §16, §17, §18, §19, §20, §21, §22, §23

[4] = Metabolic stability assay, mouse liver microsomes; settings: in % (unit assumed)
Protocol: as §1, §2, §3, §4, §5, §6, §7, §8, §9, §10, §11, §12, §13, §14, §15, §16, §17, §18, §19, §20, §21, §22, §23

[5] = Metabolic stability assay, rat liver microsomes; settings: in % (unit assumed)
Protocol: as §1, §2, §3, §4, §5, §6, §7, §8, §9, §10, §11, §12, §13, §14, §15, §16, §17, §18, §19, §20, §21, §22, §23

[6] = tested on: TMD8 large B cell lymphoma; assay: TMD8 large B cell lymphoma model tumor growth; assay type: in vivo, mouse; settings: Fig.3c TMD-8, 25mg/kg p.o. QD x 21D, n=6, individual animals
Description: (§24) PO, oral administration; QD, once daily; BID, twice daily. b–d Tumor growth curves for A2780 ovarian tumor (n = 5) (b), TMD8 large B cell lymphoma (n = 6) (c), and B16F10 melanoma (n = 5) (d) bearing mice treated with the indicated compounds once daily for 11-21 days. e, f Tumor growth curves for A375 melanoma (n = 6) (e), and patient-derived xenograft (PDX) of melanoma (n = 5) (f) bearing mice treated with the indicated compounds once daily (5 days on, 2 days off) for 21 days. For d–f, NHWD-870 used is NHWD-870-HCl synthesized using Suzuki coupling route. Data are presented as mean ± SEM in (a, b, d, f) and mean + SEM in (c, e). p values were calculated using two-tailed, unpaired t tests. *p < 0.05; **p < 0.01; ***p < 0.001. Source data are provided as a Source Data file.
(§25) 4–6 weeks old female BALB/c nude mice were used for most experiments, with the exception of 6–8 weeks old female C57BL/6 mice were used for B16F10 experiments, and 6–8 weeks old male BALB/c nude mice and SD rats were used for pharmacokinetic experiments. All animals were purchased from Shanghai SIPPR-Bk Lab Animal Co., Ltd. All animals were housed under a regimen of 12 h light/12 h dark cycles and specific pathogen-free conditions. 5×10^6 NCI-H526, ES-2, MDA-MB231, A2780, A375, B16F10, and TMD-8 cells (0.1 ml) were injected subcutaneously into female nude mice. The melanoma patient-derived xenograft model was derived from a human melanoma sample (BRAF, NARS and NF1 wild type, and p53 mutant) removed from a patient in Xiangya Hospital. Surgically removed tumor fragments were implanted subcutaneously into female NSG mice. When the tumors grew to ~1000 mm^3, they were harvested and cryopreserved or immediately re-implanted for expansion or experiments. Mouse body weight and tumor sizes were measured every 3 days. Once the tumors grew to 150–200 mm^3, mice were treated with the compounds as described in the Figures. 1 × 10^6 A2780 cells (1 ml) were injected into the abdominal cavity of nude mice. Ascitic volume and tumor weight were measured by an electronic balance. All the procedures were evaluated and approved by the Institutional Animal Care and Use Committee of Central South University and Yale University.

B16F10 mouse melanoma = B16F10 mouse melanoma syngeneic model tumor growth; assay type: in vivo, C57BL/6 mice; design: Tumor volume: unit not given here; settings: Fig.3d, individual animals
Description: as §24, §25

Compound: O=C(O)Cc1ccccc1Nc1c(Cl)cccc1Cl [Diclofenac]
- Remaining in Dog liver microsomes (Sup Fig.6c) ([1]; time 0): 100
- Remaining in Dog liver microsomes (Sup Fig.6c) ([1]; time 5): 94.367
- Remaining in Dog liver microsomes (Sup Fig.6c) ([1]; time 10): 98.224
- Remaining in Dog liver microsomes (Sup Fig.6c) ([1]; time 20): 89.21
- Remaining in Dog liver microsomes (Sup Fig.6c) ([1]; time 30): 87.634
- Remaining in Dog liver microsomes (Sup Fig.6c) ([1]; time 60): 78.588
- Remaining in Human liver microsomes (Sup Fig.6e) ([2]; time 0): 100
- Remaining in Human liver microsomes (Sup Fig.6e) ([2]; time 5): 68.568
- Remaining in Human liver microsomes (Sup Fig.6e) ([2]; time 10): 50.449
- Remaining in Human liver microsomes (Sup Fig.6e) ([2]; time 20): 28.02
- Remaining in Human liver microsomes (Sup Fig.6e) ([2]; time 30): 16.826
- Remaining in Human liver microsomes (Sup Fig.6e) ([2]; time 60): 2.933
- Remaining in Monkey liver microsomes (Sup Fig.6d) ([3]; time 0): 100
- Remaining in Monkey liver microsomes (Sup Fig.6d) ([3]; time 5): 88.217
- Remaining in Monkey liver microsomes (Sup Fig.6d) ([3]; time 10): 88.366
- Remaining in Monkey liver microsomes (Sup Fig.6d) ([3]; time 20): 94.477
- Remaining in Monkey liver microsomes (Sup Fig.6d) ([3]; time 30): 85.252
- Remaining in Monkey liver microsomes (Sup Fig.6d) ([3]; time 60): 84.048
- Remaining in mouse liver microsomes (Sup Fig.6a) ([4]; time 0): 100
- Remaining in mouse liver microsomes (Sup Fig.6a) ([4]; time 5): 92.277
- Remaining in mouse liver microsomes (Sup Fig.6a) ([4]; time 10): 89.557
- Remaining in mouse liver microsomes (Sup Fig.6a) ([4]; time 20): 85.421
- Remaining in mouse liver microsomes (Sup Fig.6a) ([4]; time 30): 78.177
- Remaining in mouse liver microsomes (Sup Fig.6a) ([4]; time 60): 51.477
- Remaining in rat liver microsomes (Sup Fig.6b) ([5]; time 0): 100
- Remaining in rat liver microsomes (Sup Fig.6b) ([5]; time 5): 75.339
- Remaining in rat liver microsomes (Sup Fig.6b) ([5]; time 10): 59.077
- Remaining in rat liver microsomes (Sup Fig.6b) ([5]; time 20): 35.911
- Remaining in rat liver microsomes (Sup Fig.6b) ([5]; time 30): 22.814
- Remaining in rat liver microsomes (Sup Fig.6b) ([5]; time 60): 4.586

Compound: C=CC(=O)N1CCC[C@@H](n2nc(-c3ccc(Oc4ccccc4)cc3)c3c(N)ncnc32)C1 [Ibrutinib, reference compound]
- Tumor volume ([6]; day 0): 154.352 mm^3 and 126.234 mm^3 and 92.4707 mm^3 and 208.237 mm^3 and 189.187 mm^3 and 112.682 mm^3
- Tumor volume ([6]; day 3): 237.85 mm^3 and 276.464 mm^3 and 91.3933 mm^3 and 282.765 mm^3 and 163.343 mm^3 and 107.8 mm^3
- Tumor volume ([6]; day 7): 352.832 mm^3 and 423.619 mm^3 and 205.187 mm^3 and 365.185 mm^3 and 345.367 mm^3 and 135.53 mm^3
- Tumor volume ([6]; day 10): 473.704 mm^3 and 751.605 mm^3 and 389.433 mm^3 and 510.345 mm^3 and 486.864 mm^3 and 230.549 mm^3
- Tumor volume ([6]; day 14): 835.097 mm^3 and 1026.1 mm^3 and 435.155 mm^3 and 707.68 mm^3 and 720.134 mm^3 and 302.373 mm^3
- Tumor volume ([6]; day 17): 1017.47 mm^3 and 1815.12 mm^3 and 476.012 mm^3 and 822.388 mm^3 and 594.62 mm^3 and 293.12 mm^3
- Tumor volume ([6]; day 21): 1538.44 mm^3 and 2230.02 mm^3 and 727.616 mm^3 and 1254.35 mm^3 and 985.284 mm^3 and 887.285 mm^3

Compound: C[C@]12CC[C@H]3[C@@H](CCC4=CC(=O)CC[C@@]43C)[C@@H]1CC[C@@H]2O [Testosterone]
- Remaining in Dog liver microsomes (Sup Fig.6c) ([1]; time 0): 100
- Remaining in Dog liver microsomes (Sup Fig.6c) ([1]; time 5): 51.913
- Remaining in Dog liver microsomes (Sup Fig.6c) ([1]; time 10): 27.194
- Remaining in Dog liver microsomes (Sup Fig.6c) ([1]; time 20): 14.015
- Remaining in Dog liver microsomes (Sup Fig.6c) ([1]; time 30): 6.615
- Remaining in Dog liver microsomes (Sup Fig.6c) ([1]; time 60): 0
- Remaining in Human liver microsomes (Sup Fig.6e) ([2]; time 0): 100
- Remaining in Human liver microsomes (Sup Fig.6e) ([2]; time 5): 82.349
- Remaining in Human liver microsomes (Sup Fig.6e) ([2]; time 10): 75.006
- Remaining in Human liver microsomes (Sup Fig.6e) ([2]; time 20): 64.528
- Remaining in Human liver microsomes (Sup Fig.6e) ([2]; time 30): 50.522
- Remaining in Human liver microsomes (Sup Fig.6e) ([2]; time 60): 21.403
- Remaining in Monkey liver microsomes (Sup Fig.6d) ([3]; time 0): 100
- Remaining in Monkey liver microsomes (Sup Fig.6d) ([3]; time 5): 72.293
- Remaining in Monkey liver microsomes (Sup Fig.6d) ([3]; time 10): 57.852
- Remaining in Monkey liver microsomes (Sup Fig.6d) ([3]; time 20): 51.22
- Remaining in Monkey liver microsomes (Sup Fig.6d) ([3]; time 30): 37.184
- Remaining in Monkey liver microsomes (Sup Fig.6d) ([3]; time 60): 14.336
- Remaining in rat liver microsomes (Sup Fig.6b) ([5]; time 0): 100
- Remaining in rat liver microsomes (Sup Fig.6b) ([5]; time 5): 0.549
- Remaining in rat liver microsomes (Sup Fig.6b) ([5]; time 10): 0
- Remaining in rat liver microsomes (Sup Fig.6b) ([5]; time 20): 0
- Remaining in rat liver microsomes (Sup Fig.6b) ([5]; time 30): 0
- Remaining in rat liver microsomes (Sup Fig.6b) ([5]; time 60): 0

Compound: Cc1nnn(C)c1-c1cnc2c3c4cnn(C)c4ccc3n([C@H](c3ccccc3)C3CCOCC3)c2c1 [compound 870]
- Tumor volume (B16F10 mouse melanoma; 1mg/kg, day 0): 0
- Tumor volume (B16F10 mouse melanoma; 1mg/kg, day 3): 56 and 75 and 36 and 4 and 137
- Tumor volume (B16F10 mouse melanoma; 1mg/kg, day 7): 88 and 81 and 51 and 56 and 405
- Tumor volume (B16F10 mouse melanoma; 1mg/kg, day 11): 198 and 63 and 191 and 162 and 405
- Tumor volume (B16F10 mouse melanoma; 2mg/kg, day 0): 0
- Tumor volume (B16F10 mouse melanoma; 2mg/kg, day 3): 14 and 36 and 172 and 3.5 and 2.5
- Tumor volume (B16F10 mouse melanoma; 2mg/kg, day 7): 40 and 75 and 288 and 2.1 and 2.5
- Tumor volume (B16F10 mouse melanoma; 2mg/kg, day 11): 0 and 237 and 500 and 2.5 and 1.6
